The values that follow come from patent US20050176641A1, “Long lasting natriuretic peptide derivatives” (CONJUCHEM, INC., priority 2000, published 2005).

Data set [1] addresses T1, natriuretic peptide receptors with guanylate cyclase activity (Homo sapiens, UniProt P16066).
T1 construct: Hela cells express high levels of natriuretic peptide receptors with guanylate cyclase activity; endogenous in cells; host or cells: HeLa (human cervix epithelial adenocarcinoma)
T1 sequence (P16066 33-1061): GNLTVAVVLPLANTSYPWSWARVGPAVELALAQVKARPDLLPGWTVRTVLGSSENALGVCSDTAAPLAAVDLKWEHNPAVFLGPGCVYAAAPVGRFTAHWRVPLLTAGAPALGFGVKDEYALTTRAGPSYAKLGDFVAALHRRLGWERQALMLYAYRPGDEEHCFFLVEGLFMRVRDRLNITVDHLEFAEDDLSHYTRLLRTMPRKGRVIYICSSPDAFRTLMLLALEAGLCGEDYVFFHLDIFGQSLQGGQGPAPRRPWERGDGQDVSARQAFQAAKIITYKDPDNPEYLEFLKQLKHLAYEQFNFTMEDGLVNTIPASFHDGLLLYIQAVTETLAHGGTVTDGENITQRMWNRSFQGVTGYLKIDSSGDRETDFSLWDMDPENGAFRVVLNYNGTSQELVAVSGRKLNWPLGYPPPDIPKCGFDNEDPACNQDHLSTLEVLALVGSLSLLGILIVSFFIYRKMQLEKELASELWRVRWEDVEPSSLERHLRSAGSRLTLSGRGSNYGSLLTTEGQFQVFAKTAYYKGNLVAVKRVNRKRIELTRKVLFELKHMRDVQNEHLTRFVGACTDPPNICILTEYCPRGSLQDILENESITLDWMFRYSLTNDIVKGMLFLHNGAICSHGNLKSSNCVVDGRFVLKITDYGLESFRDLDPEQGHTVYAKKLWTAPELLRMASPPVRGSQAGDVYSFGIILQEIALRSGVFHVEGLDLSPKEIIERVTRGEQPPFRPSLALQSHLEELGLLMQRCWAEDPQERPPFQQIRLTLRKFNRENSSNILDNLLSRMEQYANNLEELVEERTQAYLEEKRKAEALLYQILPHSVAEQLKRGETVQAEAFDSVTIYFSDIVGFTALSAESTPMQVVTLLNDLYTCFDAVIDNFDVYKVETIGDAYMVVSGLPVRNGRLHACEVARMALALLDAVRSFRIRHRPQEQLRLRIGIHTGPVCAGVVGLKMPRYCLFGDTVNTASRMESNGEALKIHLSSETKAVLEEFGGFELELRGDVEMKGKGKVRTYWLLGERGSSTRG
The experiment in a line: cGMP production in human Hela cells. In kind it is cell-based.
Experimental: For in vitro activity studies, a human cervix epithelial adenocarcinoma cell line was used. Hela cells express high levels of natriuretic peptide receptors with guanylate cyclase activity.
One day prior cGMP experiments, cells are seeded in 48-wells plate (5×10^4 cells per well) and incubated overnight. The day of the experiment cells are washed twice in serum-free media and then incubated with or without NP derivatives or native ANP or BNP for one hour, in presence of 3-isobutyl-1-methylxanthine to prevent cGMP degradation. Incubation is terminated by removing the assay medium and by adding HCl to the cells for 10 minutes. The supernatants were then collected, centrifuged and cGMP levels are assessed using the direct cGMP EIA kit from Sigma.

The target in data set [2] is NPR receptors. The experiment in a line: Binding to guinea pig adrenal gland membranes by displacement of 125I-rANP. The method, then: The potency of NP derivatives is evaluated as their ability to bind NPR receptors in guinea pig adrenal glands and to elevate cGMP levels in a rat primary lung fibroblasts assay. Others cell lines can be used to perform these in vitro assays such as aortic smooth muscle cells, glomeruli mesangial cells and adrenal cells. Human, rat, and ginea pig cell lines or other species cell lines can be used with a preference for human cell lines.
Membranes for binding studies are prepared as follow. Adrenal glands were collected from anesthetized normal Duncan Hartley Guinea Pig and homogenized using a polytron in 50 mM Tris-HCl buffer containing 150 mM NaCl, 5 mM MgCl2, 5 mM MnCl2; pH 7.4 at 25° C. The homogenate was centrifuged for 10 minutes at 39,000×g (4° C.). The pellet was resuspended and washed. Finally, the membranes were resuspended in the same buffer supplemented with 1 mM Na2EDTA+0.2% BSA. Protein concentration is measured using the BCA protein assay kit (Pierce). The binding assay is done by incubation of membranes with 0.016 nM ^125I-rANF and increasing concentrations of either NP peptides or NP derivatives (10^−5-10^−11 M) for 60 minutes at 4° C. All assays were done in duplicate. Separation of bound and free radioactive rANF was achieved by rapid filtration through polyethylenimine-treated Whatman GF/C filters soaked in assay buffer. Filters were washed, dried and counted for radioactivity in a gamma-counter.
(In general: Loss of bound radioactivity is the signal in a displacement assay; it reports binding, not function.)

The conditions of data set [3]: literature values; cited from earlier work.
Setting [4] is: human Hela cells, one hour incubation, with 3-isobutyl-1-methylxanthine, read-out: EC50 (M), increase of cGMP production.

Read-outs that look alike come from different tables or passages of the source. Positions of bridges follow the written chain, without caps; N, C: chain ends. Residues, ends and D or L forms follow the SMILES beside them.

Turning to `CC[C@H](C)[C@@H]1NC(=O)[C@H](CCCNC(=N)N)NC(=O)[C@H](CC(=O)O)NC(=O)[C@H]([C@@H](C)CC)NC(=O)[C@H](CCCNC(=N)N)NC(=O)CNC(=O)CNC(=O)[C@H](Cc2ccccc2)NC(=O)[C@@H](N)CSSC[C@@H](C(=O)N[C@@H](CC(N)=O)C(=O)N[C@@H](CO)C(=O)N[C@@H](Cc2ccccc2)C(=O)N[C@@H](CCCNC(=N)N)C(=O)N[C@@H](Cc2ccc(O)cc2)C(N)=O)NC(=O)CNC(=O)[C@H](CC(C)C)NC(=O)CNC(=O)[C@H](CO)NC(=O)[C@H](CCC(N)=O)NC(=O)[C@H](C)NC(=O)CNC1=O` [Example 13] (H-CFGGRIDRIGAQSGLGCNSFRY-NH2; disulfide 1-17), the EC50 in data set [1] (setting [4]) is 2.72e-08 M.

For the compound `CC[C@H](C)[C@@H]1NC(=O)[C@H](CCCNC(=N)N)NC(=O)[C@H](CC(=O)O)NC(=O)[C@H](CCSC)NC(=O)[C@H](CCCNC(=N)N)NC(=O)CNC(=O)CNC(=O)[C@H](Cc2ccccc2)NC(=O)[C@@H](N)CSSC[C@@H](C(=O)N[C@@H](CC(N)=O)C(=O)N[C@@H](CO)C(=O)N[C@@H](Cc2ccccc2)C(=O)N[C@@H](CCCNC(=N)N)C(=O)N[C@@H](Cc2ccc(O)cc2)C(N)=O)NC(=O)CNC(=O)[C@H](CC(C)C)NC(=O)CNC(=O)[C@H](CO)NC(=O)[C@H](CCC(N)=O)NC(=O)[C@H](C)NC(=O)CNC1=O` [Example 17] (H-CFGGRMDRIGAQSGLGCNSFRY-NH2; disulfide 1-17), the EC50 in data set [1] (setting [4]) came out at 2.21e-08 M.

`CC[C@H](C)[C@@H]1NC(=O)[C@H](CCCNC(=N)N)NC(=O)[C@H](CC(=O)O)NC(=O)[C@H](CCSC)NC(=O)[C@H](CCCCN)NC(=O)[C@H](CCCNC(=N)N)NC(=O)CNC(=O)[C@H](Cc2ccccc2)NC(=O)[C@@H](NC(=O)CNC(=O)[C@H](CO)NC(=O)CNC(=O)[C@H](CCC(N)=O)NC(=O)[C@@H](NC(=O)[C@H](CCSC)NC(=O)[C@H](CCCCN)NC(=O)[C@@H]2CCCN2C(=O)[C@@H](N)CO)C(C)C)CSSC[C@@H](C(=O)N[C@@H](CCCCN)C(=O)N[C@H](C(=O)N[C@@H](CC(C)C)C(=O)N[C@@H](CCCNC(=N)N)C(=O)N[C@@H](CCCNC(=N)N)C(=O)N[C@@H](Cc2c[nH]cn2)C(N)=O)C(C)C)NC(=O)CNC(=O)[C@H](CC(C)C)NC(=O)CNC(=O)[C@H](CO)NC(=O)[C@H](CO)NC(=O)[C@H](CO)NC(=O)[C@H](CO)NC1=O` [Example 21]: the EC50 came to 1.99e-08 M in data set [1] and 5.41e-09 M in data set [2] (read-out: EC50 (M), concentration at 50% of inhibition, displacement of 0.016 nM 125I-rANF, 60 minutes at 4° C.). In addition, the Ki turned out to be 4.8 nM in data set [2] (displacement of 125I-ANF, read-out: apparent inhibition constant (Ki value)) and 4.86 nM in data set [2] (displacement of 125I-rANF, text gives the same Ki in M, read-out: KI (inhibition constant)).

In the case of “human BNP: native human Brain Natriuretic Peptide, 32 amino acid peptide”, the in vivo half-life in data set [3] is recorded as 12.7 min.
